Laboratory results from patent US5102873A (priority 1989, dated 1992).
In brackets after ≈: the same amount, converted by molar mass. Several values for one entry are separate records, joined by “and”; a condition that tells them apart may be missing. Equal values may be shown once.

How the values were obtained:
vaccinia virus = assay: microbe, parasite or virus in culture; format: cell-based; details: for IC50: Orthopoxvirus vaccinia, Vero, read-out: ID50 (inhibitory dose 50; 50% reduction in virus replication), vaccinia virus in Vero cells, called MIC50; for TI (therapeutic index, MTC/ID50) / Virus Rating (VR): Vero cells; for TI (therapeutic index, MTC/ID50): TI>50 indicates a useful compound; for Virus Rating (VR): VR >=1.0 significant, 0.5-0.9 marginal, <0.5 inactive, repeat lines are repeat tests
[1] = Cytotoxicity of test compound to Vero host cells (minimum toxic concentration); details: monkey, MTC (minimum toxic concentration), footnote: lowest concentration giving 50% reduction in percent survival of viable host cells

## Nc1c2ncn([C@@H]3O[C@H](CO)[C@@H](O)[C@H]3O)c2nc[n+]1[O-] [Compound 1a, Adenosine-N^1 -oxide]
Vaccinia virus
  IC50: 0.32 µg/mL (≈ 1.13 µM)
  TI (therapeutic index, MTC/ID50): 312
  Virus Rating (VR): > 2.4
[1]
  MCC: 100 µg/mL

## N=c1c2ncn([C@@H]3O[C@H](CO)[C@@H](O)[C@H]3O)c2ncn1OCc1ccc(F)cc1.[O-][Cl+3]([O-])([O-])O [Compound 2i, 1-(4-Fluorobenzyloxy)adenosine, perchloric acid salt]
Vaccinia virus
  IC50: 2.41 µg/mL
  TI (therapeutic index, MTC/ID50): 133 and 160
[1]
  MCC: > 320 µg/mL

## N=c1c2ncn([C@@H]3O[C@H](CO)[C@@H](O)[C@H]3O)c2ncn1OCc1ccc(F)c(F)c1.[O-][Cl+3]([O-])([O-])O [Compound 2k, 1-(3,4-Difluorobenzyloxy)adenosine, perchloric acid salt]
Vaccinia virus
  IC50: 0.48 µg/mL
  TI (therapeutic index, MTC/ID50): 671 and 434
  Virus Rating (VR): > 2.3
[1]
  MCC: > 320 µg/mL

## N=c1c2ncn([C@@H]3O[C@H](CO)[C@@H](O)[C@H]3O)c2ncn1OCc1cc(C(F)(F)F)cc(C(F)(F)F)c1.[O-][Cl+3]([O-])([O-])O [Compound 2m, 1-[3,5-Bis(trifluoromethyl)benzyloxy]adenosine, perchloric acid salt]
Vaccinia virus
  IC50: 1.03 µg/mL
  TI (therapeutic index, MTC/ID50): 311 and 314
[1]
  MCC: > 320 µg/mL

## N=c1c2ncn([C@@H]3O[C@H](CO)[C@@H](O)[C@H]3O)c2ncn1OCc1cccc(Cl)c1.[O-][Cl+3]([O-])([O-])O [Compound 2p, 1-(3-Chlorobenzyloxy)adenosine, perchloric acid salt]
Vaccinia virus
  IC50: 1.08 µg/mL
  TI (therapeutic index, MTC/ID50): 295 and 193
[1]
  MCC: > 320 µg/mL

## COC(=O)c1cccc(COn2cnc3c(ncn3[C@@H]3O[C@H](CO)[C@@H](O)[C@H]3O)c2=N)c1.[O-][Cl+3]([O-])([O-])O [Compound 2u, 1-(3-Methoxycarbonylbenzyloxy)adenosine, perchloric acid salt]
Vaccinia virus
  IC50: 1.55 µg/mL
  TI (therapeutic index, MTC/ID50): 207 and 139
[1]
  MCC: > 320 µg/mL

## N=c1c2ncn([C@@H]3O[C@H](CO)[C@@H](O)[C@H]3O)c2ncn1OCc1cc(F)cc(F)c1.[O-][Cl+3]([O-])([O-])O [Compound 2ff, 1-(3,5-Difluorobenzyloxy)adenosine, perchloric acid salt]
Vaccinia virus
  IC50: 1.55 µg/mL
  TI (therapeutic index, MTC/ID50): 205 and 175
  Virus Rating (VR): > 2.0
[1]
  MCC: > 320 µg/mL

## COc1cccc(COn2cnc3c(ncn3[C@@H]3O[C@H](CO)[C@@H](O)[C@H]3O)c2=N)c1.[O-][Cl+3]([O-])([O-])O [Compound 2e, 1-(3-Methoxybenzyloxy)adenosine, perchloric acid salt]
Vaccinia virus
  IC50: 0.2 µg/mL
  TI (therapeutic index, MTC/ID50): 1609 and 1075
[1]
  MCC: > 320 µg/mL

## Cc1ccc(C)c(COn2cnc3c(ncn3[C@@H]3O[C@H](CO)[C@@H](O)[C@H]3O)c2=N)c1.[O-][Cl+3]([O-])([O-])O [Compound 2bb, 1-(2,5-Dimethylbenzyloxy)adenosine, perchloric acid salt]
Vaccinia virus
  IC50: 0.38 µg/mL
  TI (therapeutic index, MTC/ID50): > 850 and > 1350
[1]
  MCC: 320 µg/mL

## N=c1c2ncn([C@@H]3O[C@H](CO)[C@@H](O)[C@H]3O)c2ncn1OCc1cc(F)ccc1F.[O-][Cl+3]([O-])([O-])O [Compound 2gg, 1-(2,5-Difluorobenzyloxy)adenosine, perchloric acid salt]
Vaccinia virus
  IC50: 1.77 µg/mL
  TI (therapeutic index, MTC/ID50): 180 and 115
[1]
  MCC: > 320 µg/mL

## Nc1c2ncn([C@H]3C[C@H](O)[C@@H](CO)O3)c2nc[n+]1[O-] [Compound 1b, 2'-Deoxyadenosine-N^1-oxide]
Vaccinia virus
  IC50: 3.06 µg/mL (≈ 11.5 µM)
  TI (therapeutic index, MTC/ID50): 104
  Virus Rating (VR): > 1.7
[1]
  MCC: > 320 µg/mL

## N=c1c2ncn([C@@H]3O[C@H](CO)[C@@H](O)[C@H]3O)c2ncn1OCc1ccccc1.[O-][Cl+3]([O-])([O-])O [Compound 2dd, 1-Benzyloxyadenosine, perchloric acid salt]
Vaccinia virus
  IC50: 1.77 µg/mL
  TI (therapeutic index, MTC/ID50): 180
  Virus Rating (VR): > 2.0
[1]
  MCC: 320 µg/mL

## CNc1c2ncn([C@@H]3O[C@H](CO)[C@@H](O)[C@H]3O)c2nc[n+]1[O-] [Compound 1c, 6-Methylamino-9-β-D-ribofuranosylpurine-N^1-oxide]
Vaccinia virus
  IC50: 0.45 µg/mL (≈ 1.51 µM)
  TI (therapeutic index, MTC/ID50): 708
  Virus Rating (VR): > 2.4
[1]
  MCC: 320 µg/mL

## N#Cc1cccc(COn2cnc3c(ncn3[C@@H]3O[C@H](CO)[C@@H](O)[C@H]3O)c2=N)c1.[O-][Cl+3]([O-])([O-])O [Compound 2x, 1-(3-Cyanobenzyloxy)adenosine, perchloric acid salt]
Vaccinia virus
  TI (therapeutic index, MTC/ID50): 182 and 134
[1]
  MCC: > 320 µg/mL

## Cc1ccc(COn2cnc3c(ncn3[C@@H]3O[C@H](CO)[C@@H](O)[C@H]3O)c2=N)cc1C.[O-][Cl+3]([O-])([O-])O [Compound 2z, 1-(3,4-Dimethylbenzyloxy)adenosine, perchloric acid salt]
Vaccinia virus
  IC50: 0.32 µg/mL
  TI (therapeutic index, MTC/ID50): > 1000 and > 1760
[1]
  MCC: 320 µg/mL

## N=c1c2ncn([C@@H]3O[C@H](CO)[C@@H](O)[C@H]3O)c2ncn1OCc1cccc([N+](=O)[O-])c1.[O-][Cl+3]([O-])([O-])O [Compound 2r, 1-(3-Nitrobenzyloxy)adenosine, perchloric acid salt]
Vaccinia virus
  IC50: 10 µg/mL
  TI (therapeutic index, MTC/ID50): 32 and 30
[1]
  MCC: > 320 µg/mL

## Nc1ncnc2c1ncn2[C@@H]1O[C@H](CO)[C@@H](O)[C@@H]1O [AraA, 9-β-D-arabinofuranosyladenine, reference compound]
Vaccinia virus
  IC50: 2 µg/mL (≈ 7.48 µM)
  TI (therapeutic index, MTC/ID50): 13.3
  Virus Rating (VR): 1.0
[1]
  MCC: > 320 µg/mL

## Cc1cccc(COn2cnc3c(ncn3[C@@H]3O[C@H](CO)[C@@H](O)[C@H]3O)c2=N)c1.[O-][Cl+3]([O-])([O-])O [Compound 2a, 1-(3-Methylbenzyloxy)adenosine, perchloric acid salt]
Vaccinia virus
  IC50: 0.41 µg/mL
  TI (therapeutic index, MTC/ID50): 781 and 487
  Virus Rating (VR): > 2.4
[1]
  MCC: > 320 µg/mL

## N#Cc1ccc(COn2cnc3c(ncn3[C@@H]3O[C@H](CO)[C@@H](O)[C@H]3O)c2=N)cc1.[O-][Cl+3]([O-])([O-])O [Compound 2v, 1-(4-Cyanobenzyloxy)adenosine, perchloric acid salt]
Vaccinia virus
  IC50: 3.2 µg/mL
  TI (therapeutic index, MTC/ID50): 100 and 134
[1]
  MCC: > 320 µg/mL

## COc1ccc(COn2cnc3c(ncn3[C@@H]3O[C@H](CO)[C@@H](O)[C@H]3O)c2=N)cc1.[O-][Cl+3]([O-])([O-])O [Compound 2d, 1-(4-Methoxybenzyloxy)adenosine, perchloric acid salt]
Vaccinia virus
  IC50: 0.01 µg/mL

## Cc1ccc(COn2cnc3c(ncn3[C@@H]3O[C@H](CO)[C@@H](O)[C@H]3O)c2=N)c(C)c1.[O-][Cl+3]([O-])([O-])O [Compound 2cc, 1-(2,4-Dimethylbenzyloxy)adenosine, perchloric acid salt]
Vaccinia virus
  IC50: 0.08 µg/mL
  TI (therapeutic index, MTC/ID50): 4110 and 3890
  Virus Rating (VR): 2.9
[1]
  MCC: 320 µg/mL

## N=c1c2ncn([C@@H]3O[C@H](CO)[C@@H](O)[C@H]3O)c2ncn1OCc1ccc(F)cc1F.[O-][Cl+3]([O-])([O-])O [Compound 2j, 1-(2,4-Difluorobenzyloxy)adenosine, perchloric acid salt]
Vaccinia virus
  IC50: 0.31 µg/mL
  TI (therapeutic index, MTC/ID50): 1029
  Virus Rating (VR): > 2.4
[1]
  MCC: > 320 µg/mL

## COc1ccc([N+](=O)[O-])cc1COn1cnc2c(ncn2[C@@H]2O[C@H](CO)[C@@H](O)[C@H]2O)c1=N.[O-][Cl+3]([O-])([O-])O [Compound 2t, 1-(2-Methoxy-5-nitrobenzyloxy)adenosine, perchloric acid salt]
Vaccinia virus
  IC50: 2.01 µg/mL
  TI (therapeutic index, MTC/ID50): 160 and 87
[1]
  MCC: > 320 µg/mL

## CC(On1cnc2c(ncn2[C@@H]2O[C@H](CO)[C@@H](O)[C@H]2O)c1=N)c1ccccc1.[O-][Cl+3]([O-])([O-])O (some centres unmarked) [Compound 2f, 1-(1-Phenylethyloxy)adenosine, perchloric acid salt]
Vaccinia virus
  IC50: < 0.32 µg/mL

## N=c1c2ncn([C@@H]3O[C@H](CO)[C@@H](O)[C@H]3O)c2ncn1OCc1ccc(C(F)(F)F)cc1C(F)(F)F.[O-][Cl+3]([O-])([O-])O [Compound 2n, 1-[2,4-Bis(trifluoromethyl)benzyloxy]adenosine, perchloric acid salt]
Vaccinia virus
  IC50: 1.45 µg/mL
  TI (therapeutic index, MTC/ID50): 221 and 181
[1]
  MCC: > 320 µg/mL

## Cc1ccccc1COn1cnc2c(ncn2[C@@H]2O[C@H](CO)[C@@H](O)[C@H]2O)c1=N.[O-][Cl+3]([O-])([O-])O [Compound 2c, 1-(2-Methylbenzyloxy)adenosine, perchloric acid salt]
Vaccinia virus
  IC50: 0.32 µg/mL
  TI (therapeutic index, MTC/ID50): 1000
  Virus Rating (VR): > 2.4
[1]
  MCC: > 320 µg/mL

## N=c1c2ncn([C@@H]3O[C@H](CO)[C@@H](O)[C@H]3O)c2ncn1OCc1cccc(F)c1.[O-][Cl+3]([O-])([O-])O [Compound 2h, 1-(3-Fluorobenzyloxy)adenosine, perchloric acid salt]
Vaccinia virus
  IC50: 0.98 µg/mL
  TI (therapeutic index, MTC/ID50): 325 and 285
[1]
  MCC: > 320 µg/mL

## COc1ccccc1COn1cnc2c(ncn2[C@@H]2O[C@H](CO)[C@@H](O)[C@H]2O)c1=N.[O-][Cl+3]([O-])([O-])O [Compound 2y, 1-(2-methoxybenzyloxy)adenosine, perchloric acid salt]
Vaccinia virus
  IC50: 0.17 µg/mL
  TI (therapeutic index, MTC/ID50): 1935 and > 3020
[1]
  MCC: 320 µg/mL

## N=c1c2ncn([C@@H]3O[C@H](CO)[C@@H](O)[C@H]3O)c2ncn1OCc1ccccc1C(F)(F)F.[O-][Cl+3]([O-])([O-])O [Compound 2l, 1-(2-Trifluoromethylbenzyloxy)adenosine, perchloric acid salt]
Vaccinia virus
  IC50: 0.82 µg/mL
  TI (therapeutic index, MTC/ID50): 391
  Virus Rating (VR): > 2.2
[1]
  MCC: > 320 µg/mL

## N#Cc1ccccc1COn1cnc2c(ncn2[C@@H]2O[C@H](CO)[C@@H](O)[C@H]2O)c1=N.[O-][Cl+3]([O-])([O-])O [Compound 2w, 1-(2-Cyanobenzyloxy)adenosine, perchloric acid salt]
[1]
  MCC: > 320 µg/mL
